{
  "source": "patent US12156865B2",
  "about": "“Formulation for soft anticholinergic analogs” (Bodor Laboratories, Inc., priority 2016, dated 2024)",
  "key": {"[1]": {"system": "sweat production in subjects with axillary hyperhidrosis", "assay": "Study BBI-4000-CL-101: gravimetrically measured sweat production", "type": "in vivo, human", "protocol": "(§1) Efficacy was assessed by the change in gravimetrically measured sweat production and the change in hyperhidrosis disease severity scale (HDSS) from baseline to Day 15 (end of therapy).\nFor the gravimetric assessment, sweat production was measured by placing filter paper (pre-weighed) on the axilla for 5 minutes while the subject was in a semi-reclining position at room temperature. The filter paper was covered with plastic during exposure to the axilla, and was then weighed following the 5-minute exposure period to calculate the amount of sweat produced."}, "[2]": {"assay": "Toxicokinetics (PK analysis) in Gottingen Minipigs", "type": "in vivo", "experimental": "(§2) All groups received 2 mL of gel formulation, once a day, for 14 consecutive days, applied to approximately 10% of their body surface area on their backs.\nBlood samples for chemistry and hematology analysis were collected as well as PK samples.\n(§3) The estimated BBI-4000 dose applied to the skin in this study was 40 mg/kg/day for Group 3 and 20 mg/kg/day for Group 2."}, "[3]": {"assay": "Hydrolysis and stability testing of aqueous BBI-4000 formulations (HPLC)", "settings": "aqueous formulations of Table II", "experimental": "An HPLC method was developed at a commercial laboratory for assaying the soft anticholinergic analog, and related substances (including hydrolysis products):\n• High performance liquid chromatography (HPLC) system Chromatography data system • XBridge Shield RP18, 4.6×150 mm, 3.5 μm HPLC column • Analytical balance capable of weighing to 0.00001 g • Ultrasonic bath • Volumetric flasks, 1, 5 mL • Syringe Filter: 25 mm, 0.45 μm, HPF Millex-HV, Millipore or suitable alternative\n• BBI-4000 standard • Water, HPLC grade • Acetonitrile (can), Optima grade • Trifluroacetic acid (TFA), Fisher • Mobile Phase “A”: 0.1% TFA in Water • Mobile Phase “B”: 0.1% TFA in Acetonitrile • Auto Sampler Flush: 1:1 Water:Acetonitrile • Diluent: Acetonitrile\nThe standards were prepared in duplicate by weighing 2.0±0.1 mg of BBI-4000 into 1 mL volumetric flasks. Dissolved and diluted to volume with acetonitrile and mixed by inversion.\nThe liquid chromatographic system was set-up as follows: • HPLC Column: XBridge Shield RP18, 4.6×150 mm, 3.5 μm • Column Temp.: 25±1° C. • Sample Temp.: ambiant • Flow Rate: 1.5 mL/min • Injection Volume: 10 μL • UV Detection: 220 nm • Run Time: 20 minutes\nThe HPLC assay was conducted on formulations at differing pH values, and the results were reviewed for “Time-Zero” and at 7 days at 40° C.:"}, "[4]": {"assay": "Stability of approximately 2% BBI-4000 formulations in four solvent systems (HPLC)", "type": "physicochemical", "settings": "for Change from Baseline (40° C./75%), reduction: after 7 days at 40° C./75% humidity", "protocol": "Various formulations of approximately 2% BBI-4000 were made and their stabilities assessed. The solvent systems were as follows:\n(a) solvent content: 100% water;\n(b) solvent content: 60% water/40% ethanol;\n(c) solvent content: 30% water/70% ethanol;\n(d) solvent content: 100% ethanol.\nEach sample was assessed at baseline; after 7 days at 25° C./60% humidity; and after 7 days at 40° C./75% humidity. The percentage change from baseline for 40° C. after 7 days was calculated in each case. HPLC analysis was conducted as described in EXAMPLE 2 below."}, "[5]": {"system": "subjects with axillary hyperhidrosis", "assay": "Study BBI-4000-CL-101: hyperhidrosis disease severity scale (HDSS)", "type": "in vivo, human", "protocol": "as §1\nFor the HDSS, subjects rated the severity of their hyperhidrosis on a 4-point scale (1, 2, 3, or 4) based on the level of interference with their daily activities."}, "Gottingen Minipigs": {"system": "Gottingen Minipigs", "assay": "14-day dermal and systemic toxicity study in Gottingen Minipigs", "settings": "anhydrous composition, 14 days", "experimental": "as §2\nThe study included daily observations of the site of application and scoring of erythema and edema (if present), daily general examinations including heart rate as well as pupil size assessment at days 1, 2, 3, 5, 7, 10 and 14. The frequent observations of heart rate and pupil size were intended to identify any potential systemic anticholinergic effect. Main organs were evaluated during necropsy and histopathology evaluation was completed for treated and untreated skin. Blood samples for chemistry and hematology analysis were collected as well as PK samples.\nas §3"}, "[6]": {"settings": "Solvent Content: 30% water, 70% Ethanol, Baseline"}, "[7]": {"settings": "Solvent Content: 30% water, 70% Ethanol, Day 7 @ 25° C./60%"}, "[8]": {"settings": "Solvent Content: 30% water, 70% Ethanol, Day 7 @ 40° C./75%"}, "[9]": {"settings": "Solvent Content: 60% water, 40% Ethanol, Baseline"}, "[10]": {"settings": "Solvent Content: 60% water, 40% Ethanol, Day 7 @ 25° C./60%"}, "[11]": {"settings": "Solvent Content: 60% water, 40% Ethanol, Day 7 @ 40° C./75%"}, "[12]": {"settings": "Solvent Content: 100% Ethanol, Baseline"}, "[13]": {"settings": "Solvent Content: 100% Ethanol, Day 7 @ 25° C./60%"}, "[14]": {"settings": "Solvent Content: 100% Ethanol, Day 7 @ 40° C./75%"}, "[15]": {"settings": "Solvent Content: 100% Water, Baseline"}, "[16]": {"settings": "Solvent Content: 100% Water, Day 7 @ 25° C./60%"}, "[17]": {"settings": "Solvent Content: 100% Water, Day 7 @ 40° C./75%"}},
  "data": [
    {"compound": "CCOC(=O)C[N@+]1(C)CCC(OC(=O)[C@](O)(c2ccccc2)C2CCCC2)C1.[Br-]", "note": "(stereo partly drawn) [BBI-4000, (2R,3′R) 3-(2-cyclopentyl-2-phenyl-2-hydroxyacetoxy)-1-(ethoxycarbonylmethyl)-1-methylpyrrolidinium bromide]", "values": [
      {"measurement": "Reduction in gravimetrically measured sweat production compared to vehicle", "setting": "[1]; Cohort 2, baseline to Day 15", "value": "greater reduction"},
      {"measurement": "Proportion of subjects with at least a 50% reduction in sweat production", "setting": "[1]; Day 15, aggregate of 5% and 10% gel (9 of 12)", "value": 75, "unit": "%"},
      {"measurement": "Systemic exposure of BBI-4000 (PK analysis)", "setting": "[2]; 10% and 20% gel (20 and 40 mg/kg/day), topical, 14 days", "value": "variable, dose related systemic exposure"},
      {"measurement": "Time at which the highest concentration was observed", "setting": "[2]; after Day-14 dosing, minipig receiving 20% BBI-4000 concentration", "value": 2, "unit": "h"},
      {"measurement": "BBI-4000 content (assay number)", "setting": "[3]; differing pH, Day 7 at 40° C. vs Time-Zero", "value": "decreased"},
      {"measurement": "Hydrolytic degradation products (two zwitterion stereoisomers, RRT 0.84 and RRT 0.80)", "setting": "[3]; Day 7 at 40° C.", "value": "noticeably increased"},
      {"measurement": "BBI-4000 Assay", "setting": "[4]; [6]", "value": 1.99, "unit": "%"},
      {"measurement": "BBI-4000 Main Hydrolysis Products (RRT-0.79-0.84)", "setting": "[4]; [6]", "value": 0, "unit": "%"},
      {"measurement": "BBI-4000 Assay", "setting": "[4]; [7]", "value": 1.95, "unit": "%"},
      {"measurement": "BBI-4000 Main Hydrolysis Products (RRT-0.79-0.84)", "setting": "[4]; [7]", "value": 0.84, "unit": "%"},
      {"measurement": "BBI-4000 Assay", "setting": "[4]; [8]", "value": 1.89, "unit": "%"},
      {"measurement": "BBI-4000 Main Hydrolysis Products (RRT-0.79-0.84)", "setting": "[4]; [8]", "value": 3.50, "unit": "%"},
      {"measurement": "Change from Baseline (40° C./75%), reduction", "setting": "[4]; Solvent Content: 30% water, 70% Ethanol", "value": 5, "unit": "%"},
      {"measurement": "BBI-4000 Assay", "setting": "[4]; [9]", "value": 1.99, "unit": "%"},
      {"measurement": "BBI-4000 Main Hydrolysis Products (RRT-0.79-0.84)", "setting": "[4]; [9]", "value": 0, "unit": "%"},
      {"measurement": "BBI-4000 Assay", "setting": "[4]; [10]", "value": 1.94, "unit": "%"},
      {"measurement": "BBI-4000 Main Hydrolysis Products (RRT-0.79-0.84)", "setting": "[4]; [10]", "value": 0.83, "unit": "%"},
      {"measurement": "BBI-4000 Assay", "setting": "[4]; [11]", "value": 1.89, "unit": "%"},
      {"measurement": "BBI-4000 Main Hydrolysis Products (RRT-0.79-0.84)", "setting": "[4]; [11]", "value": 3.40, "unit": "%"},
      {"measurement": "Change from Baseline (40° C./75%), reduction", "setting": "[4]; Solvent Content: 60% water, 40% Ethanol", "value": 5, "unit": "%"},
      {"measurement": "BBI-4000 Assay", "setting": "[4]; [12]", "value": 2.02, "unit": "%"},
      {"measurement": "BBI-4000 Main Hydrolysis Products (RRT-0.79-0.84)", "setting": "[4]; [12]", "value": 0, "unit": "%"},
      {"measurement": "BBI-4000 Assay", "setting": "[4]; [13]", "value": 2, "unit": "%"},
      {"measurement": "BBI-4000 Main Hydrolysis Products (RRT-0.79-0.84)", "setting": "[4]; [13]", "value": 0, "unit": "%"},
      {"measurement": "BBI-4000 Assay", "setting": "[4]; [14]", "value": 2.01, "unit": "%"},
      {"measurement": "BBI-4000 Main Hydrolysis Products (RRT-0.79-0.84)", "setting": "[4]; [14]", "value": 0, "unit": "%"},
      {"measurement": "Change from Baseline (40° C./75%), reduction", "setting": "[4]; Solvent Content: 100% Ethanol", "value": "<1", "unit": "%"},
      {"measurement": "BBI-4000 Assay", "setting": "[4]; [15]", "value": 1.99, "unit": "%"},
      {"measurement": "BBI-4000 Main Hydrolysis Products (RRT-0.79-0.84)", "setting": "[4]; [15]", "value": 0, "unit": "%"},
      {"measurement": "BBI-4000 Assay", "setting": "[4]; [16]", "value": 1.91, "unit": "%"},
      {"measurement": "BBI-4000 Main Hydrolysis Products (RRT-0.79-0.84)", "setting": "[4]; [16]", "value": 1.90, "unit": "%"},
      {"measurement": "BBI-4000 Assay", "setting": "[4]; [17]", "value": 1.80, "unit": "%"},
      {"measurement": "BBI-4000 Main Hydrolysis Products (RRT-0.79-0.84)", "setting": "[4]; [17]", "value": 7.42, "unit": "%"},
      {"measurement": "Change from Baseline (40° C./75%), reduction", "setting": "[4]; Solvent Content: 100% Water", "value": 9.5, "unit": "%"},
      {"measurement": "Improvement in HDSS assessments compared to vehicle", "setting": "[5]; Cohort 2, baseline to Day 15", "value": "greater improvement"},
      {"measurement": "Proportion of subjects reporting a 2-point improvement in HDSS", "setting": "[5]; Day 15, aggregate of 5% and 10% gel (8 of 12)", "value": 67, "unit": "%"},
      {"measurement": "Histopathology analysis of treated skin", "setting": "Gottingen Minipigs", "value": "unremarkable and identical to non-treated and vehicle treated skin"}
    ]}
  ]
}
